Results on 19 compounds are retold here after patent US20070299092A1 (Wyeth, priority 2004, published 2007).

Where “and” joins values, the source holds several entries; their conditions need not be identical. Equal values may be shown once. Read-outs that look alike come from different tables or passages of the source.

One assay concerns the target KDR (Homo sapiens, UniProt P35968). Put plainly: cell-based. As to conditions: read-out: % Inhibition of KDR kinase autophosphorylation in KDR15 cells, compound conc. 1000 nM.
Assay [1] deals with T1, human KDR (VEGF-receptor-2) (Homo sapiens, UniProt P35968).
T1 construct: beginning at Met-806; (5′-ATG GAT CCA GAT GM CTC CCA TTG) and ending at Val-1356; made in house
T1 sequence (P35968 806-1356): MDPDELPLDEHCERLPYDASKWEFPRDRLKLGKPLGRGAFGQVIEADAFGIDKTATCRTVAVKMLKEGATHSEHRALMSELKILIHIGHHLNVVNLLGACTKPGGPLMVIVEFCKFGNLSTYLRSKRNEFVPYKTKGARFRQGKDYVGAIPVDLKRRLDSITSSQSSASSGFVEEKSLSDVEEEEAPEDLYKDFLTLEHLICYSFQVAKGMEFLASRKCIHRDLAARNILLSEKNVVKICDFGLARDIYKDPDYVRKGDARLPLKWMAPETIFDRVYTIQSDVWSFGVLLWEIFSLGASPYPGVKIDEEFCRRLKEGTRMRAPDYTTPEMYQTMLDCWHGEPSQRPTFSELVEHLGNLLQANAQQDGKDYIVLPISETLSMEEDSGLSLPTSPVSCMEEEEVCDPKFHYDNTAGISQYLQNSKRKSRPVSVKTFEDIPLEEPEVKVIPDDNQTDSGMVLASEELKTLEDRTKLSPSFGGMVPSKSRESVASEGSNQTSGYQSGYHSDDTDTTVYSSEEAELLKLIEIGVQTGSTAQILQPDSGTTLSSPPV
Put plainly: KDR kinase enzyme assay (DELFIA, KDR-IC-Flag, poly(Glu4-Tyr) peptide). It counts as biochemical. As to conditions: for inhibition at 0.1 µM: Concentration 100 nM; for inhibition at 1 µM: Concentration 1000 nM.

Assay [2] concerns Human umbilical vein endothelial cells (HUVEC). Put plainly: HUVEC proliferation assay, VEGF-dependent growth ([3H]-thymidine incorporation). The settings on record: for inhibition at 0.1 µM / inhibition at 10 µM / inhibition at 1 µM: Homo sapiens, HUVEC. It counts as cell-based. On the procedure:
Cells were plated into 96-well dishes (4000 cells per well) and allowed to attach overnight. HUVEC were rinsed one time with 100 μl of EBMc-V (EBM supplemented with all above components except serum or VEGF), then 50 ul of EBMc-V was added to cells. Compounds were prepared at 200× stocks in DMSO, diluted into EBMc-V media as 4× stocks, then 50 ul added to appropriate wells. Finally, 100 μl of 2×VEGF (100 ng/ml prepared in EBMc-V; final 50 ng/ml VEGF) was added to all VEGF-treated wells. EBMc-V (no VEGF) was added to negative control wells. Parallel compound-treated plates were prepared except that 100 μl of EGM2 media containing 2% serum but lacking VEGF (EGMc-V) was added. Cells were incubated for 4-5 days at 37° C.
DNA synthesis was assessed by thymidine incorporation. Cells were incubated for 5 hours in 1 μCi of [^3H]-thymidine (PerkinElmer) by addition of 10 ul of 0.1 μCi/ul thymidine prepared in PBS to each well. After incubation, media was aspirated and the cells trypsinized and collected onto a mat using a vacuum-based Micro Cell Harvester (Skatron). [^3H]-thymidine was counted in a liquid scintillation counter. Compounds evaluated for ability to inhibit VEGF-dependent growth of human umbilical vein endothelial cells (HUVEC).
A general note: Dividing cells build labelled thymidine or BrdU into new DNA.

[3] abbreviates: ATP conc. 10 μM, read-out: % Inhibition.
[4] abbreviates: ATP conc. 1000 μM, read-out: % Inhibition.

Chain of KDR (P35968 20-1356): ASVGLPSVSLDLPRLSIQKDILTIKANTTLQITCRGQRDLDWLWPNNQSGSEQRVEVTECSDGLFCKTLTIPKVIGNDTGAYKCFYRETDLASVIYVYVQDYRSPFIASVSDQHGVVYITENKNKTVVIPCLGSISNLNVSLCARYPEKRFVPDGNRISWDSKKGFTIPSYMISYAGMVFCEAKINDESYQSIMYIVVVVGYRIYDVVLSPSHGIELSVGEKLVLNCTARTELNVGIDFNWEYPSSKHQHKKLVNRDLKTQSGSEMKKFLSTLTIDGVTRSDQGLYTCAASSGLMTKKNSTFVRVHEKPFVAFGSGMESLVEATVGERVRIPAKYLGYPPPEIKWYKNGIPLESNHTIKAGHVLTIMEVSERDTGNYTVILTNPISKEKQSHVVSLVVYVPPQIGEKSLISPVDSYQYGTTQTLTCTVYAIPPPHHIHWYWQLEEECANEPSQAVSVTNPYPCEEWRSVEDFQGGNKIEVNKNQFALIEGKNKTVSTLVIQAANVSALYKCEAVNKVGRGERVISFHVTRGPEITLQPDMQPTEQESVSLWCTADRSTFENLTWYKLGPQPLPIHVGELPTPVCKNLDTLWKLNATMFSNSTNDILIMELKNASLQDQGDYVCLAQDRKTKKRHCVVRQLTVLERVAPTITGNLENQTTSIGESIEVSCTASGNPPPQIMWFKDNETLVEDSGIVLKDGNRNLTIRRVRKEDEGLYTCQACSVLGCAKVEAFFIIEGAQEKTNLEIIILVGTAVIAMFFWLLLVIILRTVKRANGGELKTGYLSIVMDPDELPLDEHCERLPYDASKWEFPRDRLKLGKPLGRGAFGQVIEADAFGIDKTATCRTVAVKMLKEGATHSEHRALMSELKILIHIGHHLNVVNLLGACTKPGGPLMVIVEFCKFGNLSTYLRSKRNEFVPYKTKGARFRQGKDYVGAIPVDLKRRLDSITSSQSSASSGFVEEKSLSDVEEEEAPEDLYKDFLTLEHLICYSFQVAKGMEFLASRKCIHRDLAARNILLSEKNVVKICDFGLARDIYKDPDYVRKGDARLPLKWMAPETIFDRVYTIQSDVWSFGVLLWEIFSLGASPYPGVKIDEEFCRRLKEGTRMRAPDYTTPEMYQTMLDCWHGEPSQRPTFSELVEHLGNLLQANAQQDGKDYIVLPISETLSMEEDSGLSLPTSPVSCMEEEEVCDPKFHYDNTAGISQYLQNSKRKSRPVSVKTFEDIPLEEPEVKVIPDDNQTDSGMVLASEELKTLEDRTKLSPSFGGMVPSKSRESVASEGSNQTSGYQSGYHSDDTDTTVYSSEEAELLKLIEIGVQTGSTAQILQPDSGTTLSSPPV

As to `COc1cc2ncnc(NC3=CC(=O)C4(C)OC4C3=O)c2cc1OC` (stereo not shown) [Example 5, 4-[(6,7-dimethoxy-4-quinazolinyl)amino]-1-methyl-7-oxabicyclo[4.1.0]hept-3-ene-2,5-dione], the inhibition at 1 µM at KDR is 56%; in assay [1] (setting [3]) it was 49%; in assay [1] (setting [4]), 60%. Moreover, the inhibition at 0.1 µM in assay [1] (setting [3]) was determined as 18%.

Turning to `COCCOc1cc2ncnc(NC3=CC(=O)C(C)=CC3=O)c2cc1OC` [Example 15, 2-{[6-methoxy-7-(2-methoxyethoxy)-4-quinazolinyl]amino}-5-methylbenzo-1,4-quinone], in assay [2] (conc. 100 nM), the inhibition at 0.1 µM turned out to be 24%; the “% Inhibition of VEGF-dependent growth of HUVEC” value (“% Inhibition” below) was 40% and 42%. In addition, in assay [2] (conc. 10000 nM), the inhibition at 10 µM was 96%; the “% Inhibition” value is 98% and 97%. For the same compound, the “% Inhibition” value in assay [2] (conc. 1000 nM) is 86% and 95% and 67%.

For `COCCOc1cc2ncnc(NC3=C(Sc4ccccc4)C(=O)C=C(OC)C3=O)c2cc1OC` [Example 18, 5-methoxy-3-{[6-methoxy-7-(2-methoxyethoxy)quinazolin-4-yl]amino}-2-(phenylthio)benzo-1,4-quinone], the inhibition at 1 µM is 27% at KDR, 2% in assay [1] (setting [3]) and -30% in assay [1] (setting [4]). The inhibition at 0.1 µM in assay [1] (setting [3]) was 13%.

As to `COCCOc1cc2ncnc(NC3=C(SCc4ccccc4)C(=O)C=C(OC)C3=O)c2cc1OC` [Example 19, 2-(benzylthio)-5-methoxy-3-{[6-methoxy-7-(2-methoxyethoxy)quinazolin-4-yl]amino}benzo-1,4-quinone], the inhibition at 1 µM was -10% on KDR, 88% in assay [1] (setting [3]) and 88% in assay [1] (setting [4]). For the same compound, the inhibition at 0.1 µM in assay [1] (setting [3]) worked out at 41%.

Consider `COCCOc1cc2ncnc(NC3=CC(=O)C(Sc4ccccc4)=CC3=O)c2cc1OC` [Example 24, 2-{[6-methoxy-7-(2-methoxyethoxy)quinazolin-4-yl]amino}-5-(phenylthio)benzo-1,4-quinone], for which the inhibition at 1 µM on KDR stood at 0%; in assay [1] (setting [3]), 92%; in assay [1] (setting [4]) it was 96%. Besides, in assay [1] (setting [3]), the inhibition at 0.1 µM was 96%.

In the case of `COCCOc1cc2ncnc(NC3=CC(=O)C(Cl)=CC3=O)c2cc1OC` [Example 25, 2-chloro-5-{[6-methoxy-7-(2-methoxyethoxy)quinazolin-4-yl]amino}benzo-1,4-quinone], the inhibition at 0.1 µM in assay [2] (conc. 100 nM) was determined as 29%. Besides, the inhibition at 1 µM in assay [2] (conc. 1000 nM) was 51%. Also, the inhibition at 10 µM in assay [2] (conc. 10000 nM) was found to be 81%.

Regarding `COCCOc1cc2ncnc(NC3=CC(=O)C(Oc4cccc(C#N)c4)=CC3=O)c2cc1OC` [Example 27, 3-[(4-{[6-methoxy-7-(2-methoxyethoxy)quinazolin-4-yl]amino}-3,6-dioxocyclohexa-1,4-dien-1-yl)oxy]benzonitrile], the inhibition at 1 µM turned out to be 25% at KDR, 96% in assay [1] (setting [3]) and 98% in assay [1] (setting [4]). This compound registered an IC50 in assay [1] (ATP conc. 10 μM) of 34.4 nM. Besides, the inhibition at 0.1 µM in assay [1] (setting [3]) came out at 63%.

As for `COCCOc1cc2ncnc(NC3=CC(=O)C(Oc4cccc(OC)c4)=CC3=O)c2cc1OC` [Example 28, 2-{[6-methoxy-7-(2-methoxyethoxy)quinazolin-4-yl]amino}-5-(3-methoxyphenoxy)benzo-1,4-quinone], the inhibition at 1 µM on KDR came to 35%. Also, in assay [1] (ATP conc. 10 μM), the concentration for half-maximal inhibition (IC50) worked out at 12.1 nM, the inhibition at 0.1 µM turned out to be 83% and the inhibition at 1 µM was 96%. In addition, the inhibition at 1 µM in assay [1] (ATP conc. 1000 μM) is 98%.

As for `COCCOc1cc2ncnc(NC3=CC(=O)C(Oc4ccc(Oc5ccccc5)cc4)=CC3=O)c2cc1OC` [Example 29, 2-{[6-methoxy-7-(2-methoxyethoxy)quinazolin-4-yl]amino}-5-(4-phenoxyphenoxy)benzo-1,4-quinone], the inhibition at 1 µM at KDR amounted to 30%. Besides, in assay [1] (ATP conc. 10 μM), the half-inhibitory concentration (IC50) turned out to be 37.7 nM, the inhibition at 0.1 µM amounted to 62% and the inhibition at 1 µM was found to be 92%. In assay [1] (ATP conc. 1000 μM), the inhibition at 1 µM worked out at 95%.

`COCCOc1cc2ncnc(NC3=CC(=O)C(Oc4ccc(F)cc4)=CC3=O)c2cc1OC` [Example 30, 2-(4-fluorophenoxy)-5-{[6-methoxy-7-(2-methoxyethoxy)quinazolin-4-yl]amino}benzo-1,4-quinone]: in assay [1] (ATP conc. 10 μM), the inhibition at 0.1 µM worked out at 83% and the inhibition at 1 µM is 96%. In addition, in assay [1] (ATP conc. 1000 μM), the inhibition at 1 µM came to 98%.

Turning to `COCCOc1cc2ncnc(NC3=CC(=O)C(Oc4ccc(C#N)cc4)=CC3=O)c2cc1OC` [Example 31, 4-[(4-{[6-methoxy-7-(2-methoxyethoxy)quinazolin-4-yl]amino}-3,6-dioxocyclohexa-1,4-dien-1-yl)oxy]benzonitrile], in assay [1] (ATP conc. 10 μM), the inhibition at 0.1 µM came to 82%. For the same compound, the inhibition at 1 µM came to 96% in assay [1] (ATP conc. 10 μM) and 98% in assay [1] (ATP conc. 1000 μM).

Compound `COCCOc1cc2ncnc(NC3=CC(=O)C(Oc4ccc(OC)cc4)=CC3=O)c2cc1OC` [Example 32, 2-{[6-methoxy-7-(2-methoxyethoxy)quinazolin-4-yl]amino}-5-(4-methoxyphenoxy)benzo-1,4-quinone] returned a 50% inhibitory concentration (IC50) in assay [1] (ATP conc. 10 μM) of 4.8 nM. Moreover, the inhibition at 0.1 µM in assay [1] (ATP conc. 10 μM) came to 88%; in assay [2] (conc. 100 nM), 10%. The inhibition at 1 µM came out at 96% in assay [1] (ATP conc. 10 μM), 98% in assay [1] (ATP conc. 1000 μM) and 41% in assay [2] (conc. 1000 nM). Moreover, in assay [2] (conc. 10000 nM), the inhibition at 10 µM came to 98%.

As for `COCCOc1cc2ncnc(NC3=CC(=O)C(Oc4ccc(C(F)(F)F)cc4)=CC3=O)c2cc1OC` [Example 36, 2-{[6-methoxy-7-(2-methoxyethoxy)quinazolin-4-yl]amino}-5-[4-(trifluoromethyl)phenoxy]benzo-1,4-quinone], in assay [1] (setting [3]), the inhibition at 0.1 µM is 79% and the inhibition at 1 µM came to 96%. In addition, the inhibition at 1 µM in assay [1] (setting [4]) is 98%.

In assay [1] (ATP conc. 10 μM), `COCCOc1cc2ncnc(NC3=CC(=O)C(Oc4cccc(C(F)(F)F)c4)=CC3=O)c2cc1OC` [Example 43, 2-{[6-methoxy-7-(2-methoxyethoxy)quinazolin-4-yl]amino}-5-[3-(trifluoromethyl)phenoxy]benzo-1,4-quinone] gave an IC50 of 121 nM. Besides, the inhibition at 0.1 µM in assay [1] (setting [3]) was 45%. Moreover, the inhibition at 1 µM was 89% in assay [1] (setting [3]) and 36% in assay [2] (conc. 1000 nM). Moreover, the inhibition at 10 µM in assay [2] (conc. 10000 nM) is 88%.

`COCCOc1cc2ncnc(NC3=CC(=O)C(Oc4ccc(C(=O)/C=C/c5ccccc5)cc4)=CC3=O)c2cc1OC` [Example 55, 2-{[6-methoxy-7-(2-methoxyethoxy)quinazolin-4-yl]amino}-5-{4-[(2E)-3-phenylprop-2-enoyl]phenoxy}benzo-1,4-quinone]: the midpoint of inhibition in assay [1] (ATP conc. 10 μM), the IC50, lay at 5.4 nM. Further, the figures for the inhibition at 0.1 µM in assay [1] (setting [3]) and in assay [2] (conc. 100 nM) were 90% and 7%, respectively. Also, the results for the inhibition at 1 µM in assay [1] (setting [3]) and in assay [2] (conc. 1000 nM) were 93% and 61%, respectively. The inhibition at 10 µM in assay [2] (conc. 10000 nM) turned out to be 99%.

In the case of `COCCOc1cc2ncnc(NC3=CC(=O)C(Oc4ccc(C(C)(C)c5ccccc5)cc4)=CC3=O)c2cc1OC` [Example 56, 2-{[6-methoxy-7-(2-methoxyethoxy)quinazolin-4-yl]amino}-5-[4-(1-methyl-1-phenylethyl)phenoxy]benzo-1,4-quinone], it took 62.2 nM to reach half-maximal inhibition in assay [1] (ATP conc. 10 μM) (IC50). Moreover, in assay [1] (setting [3]), the inhibition at 0.1 µM stood at 69% and the inhibition at 1 µM was determined as 81%.

Take `COCCOc1cc2ncc(C#N)c(NC3=CC(=O)C(Oc4ccccc4)=CC3=O)c2cc1OC` [Example 71, 4-[(3,6-dioxo-4-phenoxycyclohexa-1,4-dien-1-yl)amino]-6-methoxy-7-(2-methoxyethoxy)quinoline-3-carbonitrile]: the concentration for half-maximal inhibition (IC50) in assay [1] (ATP conc. 10 μM) stood at 273 nM. In assay [1] (setting [3]), the inhibition at 0.1 µM was 41%. Also, the values for the inhibition at 1 µM in assay [1] (setting [3]) and in assay [1] (setting [4]) were 85% and 58%, respectively.

For the compound `COCCOc1cc2ncnc(NC3=CC(=O)C(N(C)c4ccccc4)=CC3=O)c2cc1OC` [Example 76, 2-{[6-methoxy-7-(2-methoxyethoxy)quinazolin-4-yl]amino}-5-[methyl(phenyl)amino]benzo-1,4-quinone], the inhibition at 0.1 µM in assay [2] (conc. 100 nM) is -30%. The inhibition at 1 µM in assay [2] (conc. 1000 nM) is 63%. For the same compound, in assay [2] (conc. 10000 nM), the inhibition at 10 µM turned out to be 96%.

`COCCOc1cc2ncnc(NC3=CC(=O)C(OC)=CC3=O)c2cc1OC` [Example 105, 2-(methoxy)-5-{[6-methoxy-7-(2-methoxyethoxy)quinazolin-4-yl]amino}benzo-1,4-quinone]: the inhibition at 0.1 µM in assay [2] (conc. 100 nM) was -1%. Further, the inhibition at 1 µM in assay [2] (conc. 1000 nM) was 36%. Moreover, the inhibition at 10 µM in assay [2] (conc. 10000 nM) amounted to 88%.

A word on the inhibition: it is the change of the read-out against control, counted positive when it falls. The IC50 is the midpoint of a concentration-inhibition curve. Low readings indicate higher potency, high ones lower potency.
